In US20080108669A1, “Use 541” (AstraZeneca AB, priority 2006, published 2008):

How the values were obtained:
human Trk A kinase = molecular target: T1, human Trk A kinase (Homo sapiens, UniProt P04629); assay: Trk A kinase assay (Alphascreen); assay type: biochemical; conditions: human Trk A intracellular domain, 70 μM ATP, 20 minutes, room temperature; read-out: IC50 (Trk inhibitory activity)
T1 construct: HIS; made in house; host or cells: SF9 insect cells
Experimental: Trk A kinase activity was measured for its ability to phosphorylate synthetic tyrosine residues within a generic polypeptide substrate using an Amplified Luminescent Proximity Assay (Alphascreen) technology (PerkinElmer, 549 Albany Street, Boston, Mass.).
To measure Trk A kinase activity, the intracellular domain of a HIS-tagged human Trk A kinase (amino acids 442-796 of Trk A, Swiss-Prot Primary Accession Number P04629) was expressed in SF9 cells and purified using standard nickel column chromatography. After incubation of the kinase with a biotinylated substrate and adenosine triphosphate (ATP) for 20 minutes at room temperature, the kinase reaction was stopped by the addition of 30 mM ethylenediaminetetraacetic acid (EDTA). The reaction was performed in 384 well microtitre plates and the reaction products were detected with the addition of strepavidin coated Donor Beads and phosphotyrosine-specific antibodies coated Acceptor Beads using the EnVision Multilabel Plate Reader after an overnight incubation at room temperature.

[1] = test system: carrageenan-induced monoarthritis in rat; assay: Monoarthritis induced by carrageenan, Paw Print setup (hindpaw weight distribution, "Walking pain"); assay type: in vivo; conditions: for hindpaw weight distribution (difference in percent weight-bearing between the two hind paws), mean ±SEM: four hours after administration (five hours after carrageenan), vehicle group 39.0±2.1%, n=8
Experimental: One single injection of carrageenan directly into the rat knee joint produces symptoms peaking at 3 to 4 hours and lasting for one to two days, and which are sensitive to treatment by most anti-nociceptive drugs (Tonussi and Ferreira, Pain 1992, 48, 421-427).
Under isoflurane anesthesia, 50 μL of carrageenan (7.5 mg/mL) was injected into the left tibio-tarsal (ankle) joint from the dorsal side. This injection causes a localized inflammation increasing to a maximum between 4 h to 8 h after induction, after which it gradually decreases, and the animals display decreased weight bearing on and guarding of the limb.
The Paw Print walkway consists of a 100×10 cm path with an access point at one short end and an exit at the other, and the rats are trained to make a swift, continuous passage. The walkway has a glass floor where light is projected into one long edge via fiber optics. Projecting the light in this fashion allows for virtually complete internal reflection within the glass floor. Only where an object touches the glass, such as the placement of a rat paw, light is scattered at the point of contact and produces an illuminated print (Betts, Duckworth, Eng. Med. 1978, 7, 223-228) that is recorded by a wide-angle camera placed under the walkway. The light intensity (range 0-255) of the illumination depends on the degree of contact against the floor and increases with the applied pressure (Clarke, Physiology & Behavior 1995, 58, 415-419). The Paw Print setup is a modified version of the CatWalk introduced by Hamers, Lankhorst, van Laar, Veldhuis, Gispen (J. Neurotrauma 2001, 18, 187-201), and has a computerized gait detection algorithm extracting several parameters pertaining to the rat's gait pattern and weight-bearing.
The animals were trained to cross the walkway twice, one and two days before induction of monoarthritis. Recordings were subsequently made on the day of testing, immediately before, and three and five hours after carrageenan injection, corresponding to two and four hours after per oral administration of test compound. The following parameters were used for analysis:
Weight-bearing per paw=The total sum of maximum light intensities for all pixels in the print of one paw is multiplied by the number of pixels of the print area. A paw placement consists of a number of pixels with light intensity above a certain threshold value (80 in this study). During the time course of one paw placement, a maximum value of light intensity is recorded for each pixel.
Based on the weight-bearing results, the Paw Print algorithm chooses the median print per paw in one walkway crossing. The median weight-bearing of each paw constitutes a percentage of the sum of all four paws' median weight-bearing results. The difference in percent weight-bearing between the two hind paws is shown (“Walking pain”).
The test compounds were administered 60 min after induction of monoarthritis.
Results were analysed using 1-Way ANOVA followed by Newman-Keuls for comparison between treatment groups for data obtained at each time-point after administration. The level of significance was set at p<0.05 (SigmaStat® 2.03).

T1 sequence (P04629 442-796): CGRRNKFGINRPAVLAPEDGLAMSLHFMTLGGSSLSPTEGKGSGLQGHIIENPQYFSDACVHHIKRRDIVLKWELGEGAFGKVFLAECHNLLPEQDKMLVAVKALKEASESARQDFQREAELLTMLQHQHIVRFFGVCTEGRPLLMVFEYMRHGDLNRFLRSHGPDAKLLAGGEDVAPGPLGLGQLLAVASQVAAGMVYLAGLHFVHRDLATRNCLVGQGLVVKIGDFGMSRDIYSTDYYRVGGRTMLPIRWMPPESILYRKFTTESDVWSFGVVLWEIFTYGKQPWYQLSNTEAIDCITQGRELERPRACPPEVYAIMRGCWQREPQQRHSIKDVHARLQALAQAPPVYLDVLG

`C[C@H](Nc1nc(Nc2cc(C3CC3)[nH]n2)c(Cl)cc1Cl)c1ccc(F)cc1` [(S)-3,5-Dichloro-N^2-(5-cyclopropyl-1H-pyrazol-3-yl)-N^6-(1-(4-fluoro-phenyl)ethyl)pyridine-2,6-diamine] showed an IC50 (human Trk A kinase) of 611 nM.

`C[C@H](Nc1ccc([N+](=O)[O-])c(Nc2cc(C3CC3)[nH]n2)n1)c1ccc(F)cc1` [(S)-N^2-(5-Cyclopropyl-1H-pyrazol-3-yl)-N^6-(1-(4-fluorophenyl)ethyl)-3-nitropyridine-2,6-diamine] showed an IC50 (human Trk A kinase) of 63 nM.

`C[C@H](Nc1nc(Nc2cc(C3CC3)[nH]n2)c(F)cc1CNC(=O)C1CCC(=O)N1)c1ccc(F)cc1` (stereo partly drawn) [N-((6-(5-Cyclopropyl-1H-pyrazol-3-ylamino)-5-fluoro-2-((S)-1-(4-fluorophenyl)ethylamino)pyridin-3-yl)methyl)-5-oxopyrrolidine-2-carboxamide] was tested, and the IC50 (human Trk A kinase) was 109 nM.

For `CC(C)Oc1cc(Nc2nc(N[C@@H](C)c3ccc(F)cn3)c(C#N)cc2F)n[nH]1` [(S)-5-Fluoro-2-(1-(5-fluoropyridin-2-yl)ethylamino)-6-(5-isopropoxy-1H-pyrazol-3-ylamino)nicotinonitrile], the “hindpaw weight distribution (difference in percent weight-bearing between the two hind paws), mean ±SEM” value ([1]; 50 μmol/kg per oral) was 24.6±4.3%, the “hindpaw weight distribution (difference in percent weight-bearing between the two hind paws), mean ±SEM” value ([1]; 100 μmol/kg per oral) was 27.6±3.3% and the “hindpaw weight distribution (difference in percent weight-bearing between the two hind paws), mean ±SEM” value ([1]; 200 μmol/kg per oral) was 18.4±3.2%. The “effect on hindpaw weight distribution vs vehicle (p<0.05)” value ([1]; four hours after per oral administration, all doses tested: 50, 100 and 200 μmol/kg) was “significantly reduced” and the “effect on hindpaw weight distribution vs vehicle (p<0.05)” value ([1]; two hours after per oral administration, 50, 100 and 200 μmol/kg) was “not at two hours”.
